One block for each molecule: values may come before it.
What was measured:
[1] = tested on: primary human monocytes / SLE serum-induced ISGs; assay: ISG induction by SLE serum in healthy donor monocytes (qPCR); type: cell-based; conditions: 4 h, two DWEYS concentrations, control peptide at the higher dose, mean ± SD of three independent experiments
CpG:TLR9 binding = assay: Inhibition of CpG binding to TLR9, AlphaScreen; conditions: constant CpG concentration
Experimental: Binding of TLR9 to biotinylated CpG or the DWEYS peptide was assayed in a buffer consisting of 50 mM Tris-HCl pH 7.4, 100 mM NaCl, 1% ultrapure BSA, 0.01% Tween 20 using an amplified luminescent proximity assay with streptavidin-conjugated donor beads and nickel chelate acceptor beads (AlphaScreen; Perkin Elmer, Boston, MA, USA), as described before ([1]).
Figure 2 DWEYS inhibits the transfer of the interferon signature by SLE serum but is not a TLR9 antagonist. (A) Primary human monocytes were incubated with SLE serum with or without DWEYS or with control peptide for 4 h. lSG expression was evaluated by qPCR. […] (B) Assessment of DWEYS and CpG oligonucleotides binding to TLR9. Labeled TLR9 was incubated with varying concentrations of CpG or DWEYS for 30 min in room temperature. Binding was assessed using an AlphaScreen assay as described in the methods section. (C,D) Inhibition assay. Labeled TLR9 and constant, binding concentration of CpG were incubated with different concentrations of DWEYS or a control peptide at neutral (pH 7.4, C) or acidic (pH 6.25, D) condition. Binding was assessed using an AlphaScreen assay as noted in the methods section. Results are representative of three independent experiments. ^***p < 0.001, ns, not significant.

[2] = tested on: human monocytes (CpG internalization); assay: FITC-CpG internalization by human monocytes, microscopy; type: cell-based; conditions: 37°C, 15 min (legend 20 min)
Experimental: (§1) For HMGB1 or CpG internalization assays, isolated human monocytes were cultured in 8 well-chamber-slides (Nunc, LabTek, Thermo-Fisher) in X-VIVO 15 culture medium. Cells were allowed to adhere for 2 h and then washed with PBS and incubated with AlexaFluor-594 HMGB1 or FITC-CpG with or without DWEYS for 15 min. Nuclei were counterstained using DAPI. Cells were washed three times with cold PBS and then fixed with 4% PFA and mounted using Dako mounting solution (Agilnet Technologies, Santa Clara, CA, USA).
Non IC-bound DNA can also be internalized by binding to HMGB1, with the HMGB1-DNA complex binding to RAGE ([1]). […] We incubated monocytes from healthy donors with FITC labeled CpG. […] CpG is internalized chaperoned by HMGB1 binding through RAGE.
Figure 4 DWEYS binds HMGB1 and inhibits its binding to RAGE. (A) Monocytes were incubated with labeled CpG (red) and DWEYS or control peptide for 20 min. Cells were counterstained with DAPI prior to imaging. (B) Depicts adjusted fluorescence intensity for three experiments run. (C) Monocytes from C57BL6 wild type (WT) or RAGE^−/− mice were incubated with labeled CpG for 20 min and counterstained with DAPI prior to imaging. (D) Primary human monocytes were incubated with CpG and with or without DWEYS or a control peptide for 20 min. ISG expression was analyzed by qPCR. […]

[3] = tested on: CpG-induced ISGs, primary human monocytes; assay: ISG induction by CpG in monocytes (qPCR); type: cell-based; conditions: CpG with or without peptide, 20 min per legend, three independent experiments
HMGB1 = HMGB1 binding, surface plasmon resonance; conditions: SPR Biacore T200, HMGB1 immobilized on CM5 chip, 25°C
Experimental: A Biacore T200 apparatus (GE Healthcare Bio-Sciences, Pittsburgh, PA, USA) was used for real-time binding interaction studies. For HMGB1 and DWEYS peptide binding analyses, HMGB1 protein was immobilized onto a CM5 series chip (GE Healthcare). The HMGB1 protein was diluted to a concentration of 20 μg/mL in 10 mM sodium acetate buffer (pH = 4.5). A 1:1 mixture of N-hydroxysuccinimide and N-ethyl-N-(dimethyaminopropyl) carbodiimide was used to activate two flow-cells of the CM5 chip. […] The sample flow-cell was injected with the diluted HMGB1 at a flow rate of 10 μL/min. The HMGB1 injection was stopped when the surface plasmon resonance reached ~600 RU. For HMGB1 and DWEYS peptide kinetics assay, DWEYS peptide were sequentially injected at a flow rate of 20 μL/min for 120 s at 25°C, the dissociation time was set for 2 min. The concentrations were 16, 31.25, 62.5, 125, 250 μM. The equilibrium dissociation constant (KD) was obtained to evaluate the binding affinity by using the BIAEvaluation 2.0 software (GE Healthcare) assuming a 1:1 binding ratio. At least 3 independent experiments were performed.

[4] = tested on: human monocytes (HMGB1 internalization); assay: HMGB1 internalization by human monocytes, microscopy; type: cell-based; conditions: AF-594-labeled HMGB1, human monocytes
Experimental: as §1
(B) Inhibition curve used for IC50 evaluation as noted in the methods section. (C,D) Human monocytes were incubated with labeled HMGB1 (red) alone (C, top panel) or HMGB1 and DWEYS (C, middle panel) or HMGB1 and control peptide (C, bottom panel) for 20 min. Cells were counterstained with DAPI and imaged using a confocal laser scanning microscope. (D) Indicates adjusted fluorescence intensity for three experiments. (E) Primary human monocytes were incubated with HMGB1 and with or without DWEYS or control peptide for 4 h. lSG expression was evaluated using qPCR.

[5] = tested on: HMGB1-induced ISGs, primary human monocytes; assay: ISG induction by HMGB1 in monocytes (qPCR); type: cell-based; conditions: HMGB1 with DWEYS or control peptide, 4 h, three independent experiments
Experimental: Human cells were obtained with approval of the Institutional Review Board of the Feinstein Institute for Medical Research. PBMCs were isolated from blood of healthy donors (New York Blood Center) by density centrifugation. Monocytes were enriched by negative selection using a human monocyte enrichment kit ([…] Technologies). Purity of monocytes (CD11b^+, CD14^+, LAIR-1^+) was determined to be >90% by flow cytometry (FACS Calibur, BD Biosciences, San Jose, CA, USA). Purified monocytes (2 × 10^6 cells/ml) were cultured in U-bottom 96-well plates in X-VIVO 15 serum free medium (Lonza) with the indicated reagents and harvested at 4–6 h later, or at the indicated times. […] Murine monocyte purity was determined to be >90%.
Total RNA was extracted from cells (1–2 × 10^6 cells per sample) with an RNeasy kit (Qiagen, Germantown, MD, USA) and cDNA was generated using an iScript cDNA synthesis kit (Bio-Rad, Hercules, CA, USA). qRT-PCR was performed on a Light Cycler 480 II (Roche, Indianapolis, IN, USA). […] The relative induction was calculated by 2^−ΔΔCt.
(B) Inhibition curve used for IC50 evaluation as noted in the methods section. […] (D) Indicates adjusted fluorescence intensity for three experiments. (E) Primary human monocytes were incubated with HMGB1 and with or without DWEYS or control peptide for 4 h. lSG expression was evaluated using qPCR.

primary human monocytes = assay: DWEYS internalization into monocytes (ImageStream); type: cell-based; conditions: 20 min
Experimental: Primary human monocytes were incubated for 20 min with biotin-tagged DWEYS peptide alone or with serum from SLE patients or healthy controls. Following incubation, cells were thoroughly washed and stained with anti-CD14 antibody (R&D Technologies, North Kingston, RI, USA) for 40 min at 4°C. Cells were then washed, fixed using 4% PFA and permeabilized using 1% Triton-X100, followed by incubation with labeled streptavidin for 40 min. Cell nuclei were counterstained with DAPI and cells were imaged using an ImageStream device (Amnis, Burlington, MA, USA).
Figure 3 DWEYS displaces DNA from immune complexes and inhibits DNA internalization into monocytes. (A) Primary human monocytes were incubated with labeled heat aggregated human lgG (hlgG, red) and either DWEYS or a blocking anti-FcRIIa antibody for 20 min. Cells were counterstained with DAPI and imaged using a laser scanning confocal microscope. (B) The graphs indicates adjusted fluorescence intensity for three experiments. (C) SLE serum was incubated with Syto 60 labeled dsDNA (5 μM), followed by DWEYS or control peptide (100 μM) for 30 min each. lgG was then isolated on protein G beads and Syto60 levels from protein G beads were quantified using LICOR scanner. OD was normalized to a standard labeled and filtered DNA. […] (D,E) Primary human monocytes were incubated with biotinylated DWEYS alone or biotinylated DWEYS and SLE serum from patients with or without anti ds DNA antibodies for 20 min. Cells were then stained for CD 14 as a membrane marker and intracellular DWEYS was tagged using fluorochrome labeled streptavidin. Intracellular DWEYS was quantified using lmageStream instrument: DWEYS fluorescence levels by flow cytometry (D) and representative ImageStream cell images (E). One representative experiment of three with similar results is shown. ^*p < 0.05; ns, not significant.

[6] = molecular target: T1, Recombinant HMGB1 (Calmodulin Binding Protein Epitope, Cbp tagged) (UniProt P09429 1-215); assay: SPR; Biacore T200; HMGB1 amine-coupled to a CM5 chip (~600 RU); peptide injected at 16-250 μM, 20 μL/min, 120 s, 25°C; 1:1 binding assumed; apparent KD; conditions: both partners purified
T1 construct: high-mobility group box-1 protein (HMGB1), recombinant; The reagents also list 'reduced HMGB1'; also called high-mobility group box-1
T1 sequence (looked up): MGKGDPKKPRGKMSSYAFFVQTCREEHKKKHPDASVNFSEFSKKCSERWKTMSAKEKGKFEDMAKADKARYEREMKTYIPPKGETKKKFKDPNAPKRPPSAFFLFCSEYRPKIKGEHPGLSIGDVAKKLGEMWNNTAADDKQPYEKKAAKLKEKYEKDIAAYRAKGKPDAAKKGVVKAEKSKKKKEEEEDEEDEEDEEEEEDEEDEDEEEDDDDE

[7] = molecular target: T1, Recombinant HMGB1 (Calmodulin Binding …); assay: SPR; inhibition assay, Biacore T200; sRAGE amine-coupled to a CM5 chip (~500 RU); HMGB1 (0.5 μM) with or without DWEYS 50 to 1.6 μM injected at 30 μL/min for 60 s, 25°C; PBS + 0.05 Tween 20; conditions: both partners purified

Molecule: biotinylated DWEYS [labeled DWEYS]
internalization of DWEYS, no serum (primary human monocytes; biotinylated DWEYS alone): only minimal internalization
internalization of DWEYS, SLE serum with high anti-DNA titer (primary human monocytes; biotinylated DWEYS with SLE serum with high anti-DNA antibody titer): significant intracellular internalization of DWEYS was seen
internalization of DWEYS, SLE serum lacking anti-DNA antibodies (primary human monocytes; biotinylated DWEYS with SLE serum with low titers of anti-DNA antibodies): did not mediate DWEYS internalization
internalization of DWEYS, healthy donor serum (primary human monocytes; biotinylated DWEYS with serum from healthy donors): only minimal internalization

B2: high-mobility group box-1 (protein)
chain: T1 sequence (looked up)
modifications: left off: Calmodulin Binding Protein Epitope (Cbp), end not stated, state not stated
HMGB1 internalization alone [4]: detected in monocytes after 15–30 min in incubation

Now from value to molecule, other results behind:

binding to immobilized HMGB1 (HMGB1): did not bind
Molecule: TATAT [control peptide]
ISG induction by SLE serum (effect of peptide) [1]: showed an induction of all three ISGs studied
inhibition of CpG binding to TLR9, acidic pH (CpG:TLR9 binding; pH 6.25 (simulating activated endosome)): neither DWEYS, nor a control peptide, used at various concentrations, inhibited the binding
inhibition of CpG binding to TLR9, neutral pH (CpG:TLR9 binding; pH 7.4): neither DWEYS, nor a control peptide, used at various concentrations, inhibited the binding
CpG internalization (effect of peptide) [2]: no effect
CpG induction of ISGs (effect of peptide) [3]: failed to inhibit ISG induction
HMGB1 internalization (effect of peptide) ([4]; 20 min, confocal microscopy): no inhibition of HMGB1 internalization
ISG level on HMGB1 incubation [5]: increased level of ISGs, in the presence of control peptide

Kd [6]: 185 µM
IC50 [7]: 34.7 µM
B1: DWEYS peptide (peptide)
peptide: DWEYS
notes: the biotinylated form may have been used there; also called pentapeptide DWEYS; DNA mimetope; source: synthetic peptide (GenScript)
